According to US20150148256A1, “BIOLUMINESCENCE IMAGING-BASED SCREENING ASSAY AND INHIBITORS OF ABCG2” (THE JOHNS HOPKINS UNIVERSITY, priority 2008, published 2015):
Structures can show the parent of a compound that is named as a salt. Where two headings read alike, the source gives them in different places. Residues, ends and D or L forms follow the SMILES beside them.

Target: T1, ABCG2 (Homo sapiens, UniProt Q9UNQ0)
T1 sequence (Q9UNQ0 1-655): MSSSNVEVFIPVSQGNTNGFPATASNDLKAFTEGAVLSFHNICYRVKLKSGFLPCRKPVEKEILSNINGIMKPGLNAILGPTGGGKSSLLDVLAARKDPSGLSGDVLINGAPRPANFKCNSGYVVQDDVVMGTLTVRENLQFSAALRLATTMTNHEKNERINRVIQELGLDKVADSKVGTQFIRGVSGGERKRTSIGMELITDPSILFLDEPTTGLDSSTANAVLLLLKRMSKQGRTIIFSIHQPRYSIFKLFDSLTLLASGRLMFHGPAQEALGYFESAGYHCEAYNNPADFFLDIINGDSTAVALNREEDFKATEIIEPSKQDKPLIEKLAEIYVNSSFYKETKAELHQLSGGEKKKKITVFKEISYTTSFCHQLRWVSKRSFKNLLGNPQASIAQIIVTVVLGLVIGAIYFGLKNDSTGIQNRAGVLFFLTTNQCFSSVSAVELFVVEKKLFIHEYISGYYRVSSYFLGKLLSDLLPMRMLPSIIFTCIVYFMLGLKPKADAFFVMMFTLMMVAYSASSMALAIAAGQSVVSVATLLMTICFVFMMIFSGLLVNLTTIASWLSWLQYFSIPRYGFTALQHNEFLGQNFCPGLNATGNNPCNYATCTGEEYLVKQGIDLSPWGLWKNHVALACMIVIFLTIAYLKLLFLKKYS
Test: Bioluminescence imaging (BLI) assay in HEK293/ABCG2/fLuc cells
Method: HEK293/ABCG2/fLuc cells were plated into 96-well plates at a density of 4×10^4 cells/100 μL per well and were allowed to attach overnight. The following day, 10 μL of each compound or the control solvent was transferred from a compound library in a 96-well, high-throughput format into the wells using a multichannel pipette. […] Images were taken every 5 minutes for ˜1 h. Light output from each well was quantified at the 40 min time point after initiation of imaging, and the signal-to-background (S/B) ratio of the light output from each compound divided by that from the control well was calculated. This S/B ratio serves as an indicator of the potency of ABCG2 inhibition, the mechanism by which BLI signal is enhanced.
Images were taken every 5 min for ˜1 h, and light output from each well at the 40 min time point was chosen for quantification. The SB ratio of the light output from each compound divided by that from the control well was calculated. This ratio was used as an indicator of the potency of ABCG2 inhibition, the mechanism by which BLI signal is enhanced.
The BLI signal-enhancing effect of selected ABCG2 inhibitors was evaluated within the range of 0.001 μM-100 μM, with HEK293/ABCG2/fLuc cells and 50 μg/mL D-luciferin. The data obtained at 40 min after imaging commencement were chosen arbitrarily to be plotted (FIG. 3).

[1] = Table 2, HEK293/ABCG2/fLuc cells, compound approximately 17 μM, ~50 μg/mL D-luciferin, 40 min time point

Fold (BLI enhancement, S/B ratio over control) (human, 40 min, 17 μM) [fold] | Compound | other results
5.8 | CC(=O)c1ccc2c(c1)N(CCCN1CCC(CCO)CC1)c1ccccc1S2 [piperacetazine] | Fold (BLI enhancement), previously unknown compounds (human, 40 min, 17 μM): 5.8 fold
2.1 | COc1ccc2cc1Oc1ccc(cc1)C[C@H]1c3c(cc4c(c3Oc3cc5c(cc3OC)CCN(C)[C@@H]5C2)OCO4)CCN1C [cepharanthine] | –
4.2 | CC(C)(C)c1ccc(C(O)CCCN2CCC(C(O)(c3ccccc3)c3ccccc3)CC2)cc1 (stereo not shown) [terfenadine] | –
2.4 | COc1ccccc1N1CCN(CC(O)COc2cccc3ccccc23)CC1 (stereo not shown) [naftopidil] | –
2.3 | CCOC(=O)Nc1ccc2c(c1)N(C(=O)CCN1CCOCC1)c1ccccc1S2 [moricizine hydrochloride] | –
4.9 | CC(C)(C)NC(=O)[C@@H]1C[C@@H]2CCCC[C@@H]2CN1C[C@@H](O)[C@H](Cc1ccccc1)NC(=O)[C@H](CC(N)=O)NC(=O)c1ccc2ccccc2n1 [saquinavir mesylate] | fold (BLI enhancement), additional previously known ABCG2 inhibitors (human, 40 min, 17 μM): 4.9 fold
19.0 | COc1cc2ncnc(Nc3ccc(F)c(Cl)c3)c2cc1OCCCN1CCOCC1 [gefitinib] | Fold (BLI enhancement), known compounds (human, 40 min, 17 μM): 19.0 fold
5.4 | COC(=O)[C@H]1[C@H]2C[C@@H]3c4[nH]c5cc(OC)ccc5c4CCN3C[C@H]2C[C@@H](OC(=O)c2cc(OC)c(OC)c(OC)c2)[C@@H]1OC [reserpine] | Fold (BLI enhancement), known compounds (human, 40 min, 17 μM): 5.4 fold
2.8 | COc1ccc(CCN2CCC(Nc3nc4ccccc4n3Cc3ccc(F)cc3)CC2)cc1 [astemizole] | –
3.8 | CCN(CC)Cc1cc(Nc2ccnc3cc(Cl)ccc23)ccc1O [amodiaquin] | –
2.9 | COC(=O)C1=C(C)NC(C)=C(C(=O)OCCN(C)Cc2ccccc2)C1c1cccc([N+](=O)[O-])c1 (stereo not shown) [nicardipine] | fold (BLI enhancement), additional previously known ABCG2 inhibitors (human, 40 min, 17 μM): 2.9 fold
2.2 | COc1ccc(C(=O)NCc2ccc(OCCN(C)C)cc2)cc1OC [itopride hydrochloride] | –
6.2 | COC(=O)[C@H]1[C@H]2C[C@H]3c4[nH]c5cc(OC)ccc5c4CCN3C[C@H]2C[C@@H](OC(=O)c2cc(OC)c(OC)c(OC)c2)[C@@H]1OC [isoreserpine] | Fold (BLI enhancement), previously unknown compounds (human, 40 min, 17 μM): 6.2 fold
2.5 | CCN(CC)CCNc1ccc(CO)c2sc3ccccc3c(=O)c12 [hycanthone] | –

More lines, now with the values behind:

Compound | Fold (BLI enhancement, S/B ratio over control) (human, 40 min, 17 μM) [fold] | other results
COc1cc(N)c(Cl)cc1C(=O)NC1CCN(Cc2ccccc2)CC1 [clebopride] | 6.7 | Fold (BLI enhancement), previously unknown compounds (human, 40 min, 17 μM): 6.7 fold
O=C(Nc1ccccc1)c1ccccc1O [salicylanilide] | – | Fold (BLI enhancement, S/B ratio over control) [1]: 2.2 fold
Cc1cc(O)cc(C)c1Cl [chloroxylenol] | 2.4 | –
O=c1c(O)c(-c2ccc(O)cc2)oc2cc(O)cc(O)c12 [kaempferol] | 4.3 | –
Cc1c(O)cccc1C(=O)N[C@@H](CSc1ccccc1)[C@H](O)CN1C[C@H]2CCCC[C@H]2C[C@H]1C(=O)NC(C)(C)C [nelfinavir mesylate] | 6.1 | Fold (BLI enhancement), known compounds (human, 40 min, 17 μM): 6.1 fold
C[C@]12CC[C@@H]3c4ccc(O)cc4CC[C@H]3[C@@H]1CC[C@@H]2O [estradiol] | – | fold (BLI enhancement), additional previously known ABCG2 inhibitors (human, 40 min, 17 μM): 3.6 fold
O=C1c2ccc(O)c(O)c2C(=O)c2c(O)ccc(O)c21 [quinalizarin] | 3.0 | –
CCc1c2c(nc3ccc(OC(=O)N4CCC(N5CCCCC5)CC4)cc13)-c1cc3c(c(=O)n1C2)COC(=O)[C@]3(O)CC [irinotecan hydrochloride] | 4.0 | –
CC(=O)OCC(=O)[C@@]1(O)[C@H](C)C[C@H]2[C@@H]3CCC4=CC(=O)C=C[C@]4(C)[C@@]3(F)[C@@H](O)C[C@@]21C [dexamethasone acetate] | 2.2 | –
COS(=O)(=O)[O-].C[n+]1c2ccccc2nc2ccccc21 [phenazine methosulfate] | – | Fold (BLI enhancement, S/B ratio over control) [1]: 2.8 fold
O=C(Nc1ccccc1)OCC(CN1CCCCC1)OC(=O)Nc1ccccc1 (stereo not shown) [diperodon hydrochloride] | 2.6 | –
NC1(C(=O)NCC(=O)O)CCCC1 [cycloleucylglycine] (HELM PEPTIDE1{[NC1(C(=O)[*:2])CCCC1].G}$$$$V2.0) | 2.5 | –
CN1C2CCCC1CC(NC(=O)c1nn(C)c3ccccc13)C2 (stereo not shown) [granisetron hydrochloride] | 2.2 | –
CC[C@@]1(O)C[C@H](O[C@H]2C[C@H](N(C)C)[C@H](O[C@H]3C[C@H](O)[C@H](O[C@H]4CCC(=O)[C@H](C)O4)[C@H](C)O3)[C@H](C)O2)c2c(cc3c(c2O)C(=O)c2c(O)cccc2C3=O)[C@H]1C(=O)OC [aclarubicin] | – | Fold (BLI enhancement, S/B ratio over control) (human): 3.5 fold
Cc1c(-c2cnccn2)ssc1=S [oltipraz] | 3.2 | –
N#Cc1ccc2c(c1)N(CCCN1CCC(O)CC1)c1ccccc1S2 [periciazine] | – | Fold (BLI enhancement), previously unknown compounds (human, 40 min, 17 μM): 6.3 fold
CCCCC(=O)O[C@]1(C(=O)CO)[C@@H](C)C[C@H]2[C@@H]3CCC4=CC(=O)C=C[C@]4(C)[C@@]3(F)[C@@H](O)C[C@@]21C [betamethasone valerate] | 2.6 | –

Compound | Fold (BLI enhancement, S/B ratio over control) (human, 40 min, 17 μM) [fold] | other results
CC(C)=CCC[C@]1(C)C=Cc2c(O)c3c(c(CC=C(C)C)c2O1)O[C@]12C(=C[C@@H]4C[C@H]1C(C)(C)O[C@@]2(C/C=C(/C)C(=O)O)C4=O)C3=O [gambogic acid] | 6.0 | Fold (BLI enhancement), previously unknown compounds (human, 40 min, 17 μM): 6.0 fold
N#CC(c1ccc(Cl)cc1)c1c(Cl)cc(-n2ncc(=O)[nH]c2=O)cc1Cl (stereo not shown) [diclazuril] | 2.4 | –
Cn1c(=O)c2[nH]c(C3CCCC3)nc2n(C)c1=O [8-cyclopentyltheophylline] | 2.9 | –
C[C@]12CC[C@@H]3c4ccc(O)cc4CC[C@H]3[C@@H]1CC[C@@H]2OC(=O)CCC1CCCC1 [estradiol cypionate] | – | Fold (BLI enhancement, S/B ratio over control) [1]: 3.6 fold
Cl.Cl.OCCN1CCN(CCCN2c3ccccc3Sc3ccc(C(F)(F)F)cc32)CC1 [flufenazine hydrochloride] | – | Fold (BLI enhancement, S/B ratio over control): 4.3 fold
CS(=O)(=O)O.O=C(O[C@H]1C[C@H]2CC3C[C@@H](C1)N2CC3=O)c1c[nH]c2ccccc12 [dolasetron mesylate] | – | Fold (BLI enhancement, S/B ratio over control): 3.0 fold
Cc1cc(O)c2c(=O)c3c(O)cc(O)c4c5c(O)cc(O)c6c(=O)c7c(O)cc(C)c8c1c2c(c34)c(c78)c65 [hypericin] | – | Fold (BLI enhancement, S/B ratio over control) (human): 3.3 fold
O=C(C1CCCCC1)N1CC(=O)N2CCc3ccccc3C2C1 (stereo not shown) [praziquantel] | 3.3 | –
CC[C@@]1(O)C[C@H](O[C@H]2C[C@H](N(C)C)[C@H](O)[C@H](C)O2)c2c(cc3c(c2O)C(=O)c2c(O)cccc2C3=O)[C@H]1C(=O)OC [aklavine hydrochloride] | – | Fold (BLI enhancement, S/B ratio over control) (human): 2.5 fold
CN1CCCN=C1/C=C/c1cccs1 [pyrantel] | 3.9 | –
O=c1[nH]c2ccccc2n1C1CCN(CCCC(c2ccc(F)cc2)c2ccc(F)cc2)CC1 [pimozide] | 2.0 | –
CC1(C)O[C@@H]2C[C@H]3[C@@H]4CCC5=CC(=O)CC[C@]5(C)[C@@]4(F)[C@@H](O)C[C@]3(C)[C@]2(C(=O)CCl)O1 [halcinonide] | 2.2 | –
COc1ccc2c(c1)[nH]c1c(C)nccc12 [harmine] | – | Fold (BLI enhancement), known compounds (human): 8.9 fold; Fold (BLI enhancement, S/B ratio over control) (human): 8.9 fold
O=c1[nH]c(=O)n([C@H]2C[C@H](O)[C@@H](CO)O2)cc1F [floxuridine] | 2.2 | –
C[C@]12CC[C@@H]3c4ccc(O)cc4CC[C@H]3[C@@H]1CC[C@@H]2O [13-estradiol] | – | Fold (BLI enhancement, S/B ratio over control) [1]: 4.2 fold
estrone hemisuccinate | – | Fold (BLI enhancement, S/B ratio over control) [1]: 5.4 fold; Fold (BLI enhancement), previously unknown compounds (Table 4, approximately 17 μM, 40 min time point): 5.4 fold
